Reference: patent US20240307362A1 (priority 2019, published 2024)
“And” between values parts separate entries of the source, which are not always exact repeats. Identical values can stand only once. Like-named read-outs stand apart in the source and are kept apart here.

Assays:
human Bub1 = human Bub1 (Homo sapiens (Human), UniProt O43683); test: Bub1 high ATP kinase assay (TR-FRET); assay type: biochemical; settings: read-out: Bub1 high ATP (2 mM) IC50; 2 mM ATP
Excerpt: Bub1-inhibitory activity of compounds of the present invention at a high ATP concentration was quantified employing the Bub1 TR-FRET high ATP kinase assay as described in the following paragraphs.
N-terminally His6-tagged recombinant catalytic domain of human Bub1 (amino acids 704-1085), expressed in insect cells (Hi5) and purified by Ni-NTA affinity chromatography and subsequent size exclusion chromatography, was used as enzyme.

Ba/F3-EGFR-insSVD = test: Ba/F3 cell survival assay, EGFR-insSVD; assay type: cell-based
Protocol: (§1) 293T cells from ATCC were transfected with pBABEpuro expression constructs for WT EGFR or EGFR-insSVD and pCL-Eco packaging vector using Fugene-6 transfection reagent from Promega. Plates were incubated at 37° C. for 48 h. Retrovirus was harvested by filtering the media supernatant through a 0.45 μm filter.
(§2) Ba/F3 cells purchased from DSMZ were grown in RPMI+10% FBS+10 ng/mL IL-3 and infected with filtered retroviral supernatant at a 1:2 dilution. Polybrene was added to a concentration of 8 μg/mL, plates were spun for 90 min, and incubated overnight at 37° C. 2 μg/mL puromycin was added to the infected cells 24 h after infection and cells were continually grown in the presence of puromycin and 10 ng/mL IL-3. Following stably expressing Ba/F3 cell lines were generated: Ba/F3-EGFR-WT, Ba/F3-EGFR-insSVD, (Ba/F3-vector-control).
For cell survival assays, Ba/F3 cells were grown to a density of 1-2 million cells per mL, spun down and resuspended in media without IL-3, and replated at a concentration 200,000-500,000 cells per mL. The cells ectopically expressing WT EGFR or EGFR-insSVD were plated with 10 ng/mL Millipore Culture grade EGF. The cells ectopically expressing pBABEpuro empty vector were plated with 10 ng/mL IL-3.
2 days later, cells were plated in 50 μL in a 384 well plate at a concentration of 4000 cells per well for cells assayed in the absence of IL-3 and 2000 cells per well for cells assayed in the presence of IL-3. 100 nL of compound was added to each well using a 100 nL pin head, and plates were incubated at 37° C. for 48 h.
Cell viability was measured by adding 20 μL of Cell Titer-Glo Luminescent Cell Viability Reagent diluted 1:3 in PBS. Plates were sealed with Perkin Elmer Top-Seal, inverted several times to mix, and immediately centrifuged at 1000 rpm for 2 min. Plates were incubated in low light conditions for 8-10 min and luminescence was measured.

Ba/F3-EGFR-WT = test: Ba/F3 cell survival assay, WT EGFR; assay type: cell-based
Protocol: as §1, §2
The cells ectopically expressing WT EGFR or EGFR-insSVD were plated with 10 ng/mL Millipore Culture grade EGF. The cells ectopically expressing pBABEpuro empty vector were plated with 10 ng/mL IL-3.
100 nL of compound was added to each well using a 100 nL pin head, and plates were incubated at 37° C. for 48 h.
Cell viability was measured by adding 20 μL of Cell Titer-Glo Luminescent Cell Viability Reagent diluted 1:3 in PBS. Plates were sealed with Perkin Elmer Top-Seal, inverted several times to mix, and immediately centrifuged at 1000 rpm for 2 min.

[1] = Mus musculus, BaF3, 48 h, read-out: BA/F3 (insSVD) IC50, cell viability, Cell Titer-Glo, 48 h, with 10 ng/mL EGF, without IL-3
[2] = Mus musculus, BaF3, 48 h, read-out: BA/F3 (wild type) IC50, cell viability, Cell Titer-Glo, 48 h, with 10 ng/mL EGF, without IL-3
[3] = read-out: BA/F3 (insSVD) IC50, cell viability, Cell Titer-Glo, 48 h, with 10 ng/mL EGF, without IL-3
[4] = read-out: BA/F3 (wild type) IC50, cell viability, Cell Titer-Glo, 48 h, with 10 ng/mL EGF, without IL-3

human Bub1, sequence (O43683 704-1085): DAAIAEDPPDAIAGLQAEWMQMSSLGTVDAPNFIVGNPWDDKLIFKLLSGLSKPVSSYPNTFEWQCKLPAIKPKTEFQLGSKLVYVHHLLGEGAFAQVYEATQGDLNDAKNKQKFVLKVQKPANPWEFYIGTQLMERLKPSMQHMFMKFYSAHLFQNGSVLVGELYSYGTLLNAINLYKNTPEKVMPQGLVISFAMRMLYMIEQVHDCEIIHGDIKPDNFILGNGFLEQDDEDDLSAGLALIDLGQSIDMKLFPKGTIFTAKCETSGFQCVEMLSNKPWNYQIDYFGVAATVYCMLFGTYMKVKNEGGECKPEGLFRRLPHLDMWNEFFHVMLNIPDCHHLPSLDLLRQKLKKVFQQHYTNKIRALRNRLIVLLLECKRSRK

| Compound | IC50 (human Bub1) | IC50 (Ba/F3-EGFR-insSVD; [1]) [nM] | IC50 (Ba/F3-EGFR-WT; [2]) [nM] | IC50 (Ba/F3-EGFR-insSVD; [3]) [nM] | IC50 (Ba/F3-EGFR-WT; [4]) [nM] |
| --- | --- | --- | --- | --- | --- |
| O=C1NCCc2[nH]c(-c3ccncc3OCC3CCO3)c(Nc3cccc(Cl)c3Cl)c21 (single isomer, unassigned; (+)) [Example 11, (+)-3-(2,3-dichloroanilino)-2-{3-[(oxetan-2-yl)methoxy]pyridin-4-yl}-1,5,6,7-tetrahydro-4H-pyrrolo[3,2-c]pyridin-4-one] | > 20000 nM | 147 | 767 | – | – |
| COc1c(Nc2c(-c3ccncc3OCC3CCO3)[nH]c3c2C(=O)NCC3)ccc(F)c1Cl (single isomer, unassigned; (+)) [Example 15, (+)-3-(3-chloro-4-fluoro-2-methoxyanilino)-2-{3-[(oxetan-2-yl)methoxy]pyridin-4-yl}-1,5,6,7-tetrahydro-4H-pyrrolo[3,2-c]pyridin-4-one] | > 20000 nM | – | – | 168 | 2380 |
| COc1c(F)cccc1Nc1c(-c2ccncc2OCC2(C)CCO2)[nH]c2c1C(=O)NCC2 (single isomer, unassigned; (+)) [Example 21, (+)-3-(3-fluoro-2-methoxyanilino)-2-{3-[(2-methyloxetan-2-yl)methoxy]pyridin-4-yl}-1,5,6,7-tetrahydro-4H-pyrrolo[3,2-c]pyridin-4-one] | > 20000 nM | – | – | 40.4 | 571 |
| COc1c(Cl)cccc1Nc1c(-c2ccncc2OCCC2CCO2)[nH]c2c1C(=O)NCC2 (single isomer, unassigned; (+)) [Example 25, (+)-3-(3-chloro-2-methoxyanilino)-2-{3-[2-(oxetan-2-yl)ethoxy]pyridin-4-yl}-1,5,6,7-tetrahydro-4H-pyrrolo[3,2-c]pyridin-4-one] | 1080 nM | 4.21 | 121 | – | – |
| Cc1cccc(Nc2c(-c3ccncc3OCC3CCO3)[nH]c3c2C(=O)NCC3)c1Cl (single isomer, unassigned; (+)) [Example 38, (+)-3-(2-chloro-3-methylanilino)-2-{3-[(oxetan-2-yl)methoxy]pyridin-4-yl}-1,5,6,7-tetrahydro-4H-pyrrolo[3,2-c]pyridin-4-one] | > 20000 nM | – | – | 48.8 | 628 |
| COc1c(F)cccc1Nc1c(-c2ccncc2OCC2OCC2(C)C)[nH]c2c1C(=O)NCC2 (single isomer, unassigned; (+)) [Example 54, (+)-2-{3-[(3,3-dimethyloxetan-2-yl)methoxy]pyridin-4-yl}-3-(3-fluoro-2-methoxyanilino)-1,5,6,7-tetrahydro-4H-pyrrolo[3,2-c]pyridin-4-one] | > 20000 nM | – | – | 30.9 | 498 |
| Cc1cccc(Nc2c(-c3ccncc3OCC3OCC3(C)C)[nH]c3c2C(=O)NCC3)c1Cl (single isomer, unassigned; (+)) [Example 59, (+)-3-(2-chloro-3-methylanilino)-2-{3-[(3,3-dimethyloxetan-2-yl)methoxy]pyridin-4-yl}-1,5,6,7-tetrahydro-4H-pyrrolo[3,2-c]pyridin-4-one] | > 20000 nM | – | – | 59.9 | 655 |
| O=C1NCCc2[nH]c(-c3ccncc3OCC3CCO3)c(Nc3cccc(Cl)c3Cl)c21 (single isomer, unassigned; (-)) [Example 12, (−)-3-(2,3-dichloroanilino)-2-{3-[(oxetan-2-yl)methoxy]pyridin-4-yl}-1,5,6,7-tetrahydro-4H-pyrrolo[3,2-c]pyridin-4-one] | 11300 nM | – | – | 192 | 991 |
| COc1c(Nc2c(-c3ccncc3OCC3CCO3)[nH]c3c2C(=O)NCC3)ccc(F)c1Cl (single isomer, unassigned; (-)) [Example 14, (−)-3-(3-chloro-4-fluoro-2-methoxyanilino)-2-{3-[(oxetan-2-yl)methoxy]pyridin-4-yl}-1,5,6,7-tetrahydro-4H-pyrrolo[3,2-c]pyridin-4-one] | 16300 nM | – | 1660 | 438 | – |
| Cc1cccc(Nc2c(-c3ccncc3OCC3CCO3)[nH]c3c2C(=O)NCC3)c1Cl (single isomer, unassigned; (-)) [Example 39, (−)-3-(2-chloro-3-methylanilino)-2-{3-[(oxetan-2-yl)methoxy]pyridin-4-yl}-1,5,6,7-tetrahydro-4H-pyrrolo[3,2-c]pyridin-4-one] | 8320 nM | – | – | 473 | 1650 |
| COc1c(Cl)cccc1Nc1c(-c2ccncc2OCC2(C)CCO2)[nH]c2c1C(=O)NCC2 (single isomer, unassigned; (-)) [Example 47, (−)-3-(3-chloro-2-methoxyanilino)-2-{3-[(2-methyloxetan-2-yl)methoxy]pyridin-4-yl}-1,5,6,7-tetrahydro-4H-pyrrolo[3,2-c]pyridin-4-one] | 8860 nM | – | – | 96.4 | 975 |
| COc1c(Cl)cccc1Nc1c(-c2ccncc2OCC2OCC2(C)C)[nH]c2c1C(=O)NCC2 (single isomer, unassigned; (-)) [Example 51, (−)-3-(3-chloro-2-methoxyanilino)-2-{3-[(3,3-dimethyloxetan-2-yl)methoxy]pyridin-4-yl}-1,5,6,7-tetrahydro-4H-pyrrolo[3,2-c]pyridin-4-one] | 17100 nM and 17300 nM and > 20000 nM | – | – | 153 | 1050 |
| Cc1cccc(Nc2c(-c3ccncc3OCC3OCC3(C)C)[nH]c3c2C(=O)NCC3)c1Cl (single isomer, unassigned; (-)) [Example 60, (−)-3-(2-chloro-3-methylanilino)-2-{3-[(3,3-dimethyloxetan-2-yl)methoxy]pyridin-4-yl}-1,5,6,7-tetrahydro-4H-pyrrolo[3,2-c]pyridin-4-one] | 18800 nM and > 20000 nM | – | – | > 1000 | 2130 |
| COc1c(F)cccc1Nc1c(-c2ccncc2OC[C@@H]2CCO2)[nH]c2c1C(=O)NCC2 [Example 5, 3-(3-fluoro-2-methoxyanilino)-2-(3-{[(2S)-oxetan-2-yl]methoxy}pyridin-4-yl)-1,5,6,7-tetrahydro-4H-pyrrolo[3,2-c]pyridin-4-one] | > 20000 nM | 22.4 | 578 | – | – |
| Cc1c(Cl)cccc1Nc1c(-c2ccncc2OC[C@@H]2CCO2)[nH]c2c1C(=O)NCC2 [Example 8, 3-(3-chloro-2-methylanilino)-2-(3-{[(2S)-oxetan-2-yl]methoxy}pyridin-4-yl)-1,5,6,7-tetrahydro-4H-pyrrolo[3,2-c]pyridin-4-one] | 7610 nM | 12.5 | 230 | – | – |
| Cc1c(Cl)cccc1Nc1c(-c2ccncc2OC[C@H]2CCO2)[nH]c2c1C(=O)NCC2 [Example 9, 3-(3-chloro-2-methylanilino)-2-(3-{[(2R)-oxetan-2-yl]methoxy}pyridin-4-yl)-1,5,6,7-tetrahydro-4H-pyrrolo[3,2-c]pyridin-4-one] | 1570 nM | 269 | 1200 | – | – |
| O=C1NCCc2[nH]c(-c3ccncc3OCC3COC3)c(Nc3cccc(Cl)c3OC(F)F)c21 [Example 17, 3-[3-chloro-2-(difluoromethoxy)anilino]-2-{3-[(oxetan-3-yl)methoxy]pyridin-4-yl}-1,5,6,7-tetrahydro-4H-pyrrolo[3,2-c]pyridin-4-one] | 7520 nM | 177 | 1740 | – | – |
| COc1c(F)cccc1Nc1c(-c2ccncc2OCC2COC2)[nH]c2c1C(=O)NCC2 [Example 18, 3-(3-fluoro-2-methoxyanilino)-2-{3-[(oxetan-3-yl)methoxy]pyridin-4-yl}-1,5,6,7-tetrahydro-4H-pyrrolo[3,2-c]pyridin-4-one] | 12100 nM | 80.1 | 819 | – | – |
